Laboratory results from ChEMBL document CHEMBL1141311, “Bioactive secondary metabolites from Boesenbergia pandurata of Myanmar and their preferential cytotoxicity against human pancreatic cancer PANC-1 cell line in nutrient-deprived medium” (2007).

These molecules were tested on PANC-1 (assay: Cytotoxicity against human PANC1 cells assessed as cell viability).
Format: functional

| Structure (SMILES) | PC100 |
| --- | --- |
| CC(C)=CCC/C(C)=C/COC(=O)c1c(O)cc(O)cc1CCc1ccccc1 | 16 µM |
| COc1cc(O)c2c(c1C/C=C(\C)CCC=C(C)C)O[C@@H](c1ccccc1)CC2=O | 128 µM |
| CC(C)=CCC/C(C)=C/Cc1c(O)cc2c(c1O)C(=O)C[C@@H](c1ccccc1)O2 | 8 µM |
| COc1cc(O)cc2c1C(=O)C[C@@H](c1ccccc1)O2 | >256 µM |
| COc1cc(O)cc2c1C(=O)C[C@@H](c1ccc(O)cc1)O2 | >256 µM |
| COc1cc(O)c(C/C=C(\C)CCC=C(C)C)c(O)c1C(=O)/C=C/c1ccccc1 | 16 µM |
| CC(C)=CC[C@@H]1C(C)=CC[C@@H](C(=O)c2c(O)cc(O)cc2O)[C@@H]1c1ccccc1 | 16 µM |
| COc1cc(O)cc(O)c1C(=O)[C@@H]1[C@H](CC=C(C)C)C(C)=CC[C@H]1c1ccccc1 | 16 µM |
| COc1cc2c(c(O)c1C/C=C(\C)CCC=C(C)C)C(=O)C[C@@H](c1ccccc1)O2 | 128 µM |
| CC(C)=CCCC1(C)C=Cc2c(cc3c(c2O)C(=O)C[C@@H](c2ccccc2)O3)O1 (stereo partly specified) | 64 µM |
| COc1cc(O)cc(O)c1C(=O)[C@@H]1CC=C(C)[C@@H](CC=C(C)C)[C@H]1c1ccccc1 (racemic) | 8 µM |
| COc1cc(O)c(C(=O)[C@@H]2[C@H](CC=C(C)C)C(C)=CC[C@H]2c2ccccc2)c(OC)c1 (racemic) | 64 µM |
| COc1cc(O)cc(O)c1C(=O)[C@@H]1[C@H](CC=C(C)C)C(C)=CC[C@H]1c1ccc(O)cc1 (racemic) | >256 µM |
| CC(C)=CC[C@@H]1C(C)=CC[C@@H](c2ccccc2)[C@@H]1C(=O)c1c(O)cc(O)cc1O [4-HYDROXYPANDURATIN A] | 16 µM |
| COc1cc(O)c(C(=O)[C@@H]2CC=C(C)[C@@H](CC=C(C)C)[C@H]2c2ccccc2)c(O)c1 [(-)-NICOLAIOIDESIN B] | 2.5 µM |
| COc1cc(C[C@H]2C(=O)OC[C@@H]2Cc2ccc(OC)c(OC)c2)ccc1O [ARCTIGENIN] | 1 µM |
| COc1cc(O)c(C(=O)/C=C/c2ccccc2)c2c1C=CC(C)(CCC=C(C)C)O2 (stereo unspecified) [BOESENBERGIN A] | 64 µM |
| COc1cc2c(c(O)c1C(=O)/C=C/c1ccccc1)C=CC(C)(CCC=C(C)C)O2 (stereo unspecified) [BOESENBERGIN B] | 64 µM |
| COc1cc(O)cc(O)c1C(=O)/C=C/c1ccccc1 [CARDAMOMIN] | >256 µM |
| COc1cc(/C=C/c2ccccc2)oc(=O)c1 [DESMETHOXYYANGONIN] | >256 µM |
| COc1cc(O)c(C(=O)/C=C/c2ccc(O)cc2)c(OC)c1 [FLAVOKAWAIN C] | >256 µM |
| CC(=O)O[C@H]1C(=O)[C@@]2(C)[C@H]([C@H](OC(=O)c3ccccc3)[C@]3(O)C[C@H](OC(=O)[C@H](O)[C@@H](NC(=O)c4ccccc4)c4ccccc4)C(C)=C1C3(C)C)[C@]1(OC(C)=O)CO[C@@H]1C[C@@H]2O [PACLITAXEL] | >256 µM |
| COc1cc(O)c(C(=O)[C@@H]2[C@H](CC=C(C)C)C(C)=CC[C@H]2c2ccccc2)c(O)c1 [PANDURATIN A] | 2.5 µM |
| O=C1C[C@@H](c2ccccc2)Oc2cc(O)cc(O)c21 [PINOCEMBRIN] | 64 µM |
| COc1cc(O)c2c(c1)O[C@H](c1ccccc1)CC2=O [PINOSTROBIN] | >256 µM |
| COc1cc(O)c2c(=O)cc(-c3ccccc3)oc2c1 [TECHTOCHRYSIN] | >256 µM |
